What was measured:
T-cell [1] = assay: IL-2 secretion from T-cells co-stimulated with anti-CD3 and anti-CD28 antibody (Biological Example 2); format: cell-based, human; settings: Homo sapiens, T-cell, fold change over baseline, primary human total T-cells, read-out: IL-2 secretion Anti-CD3/Anti-CD28 stimulation; for fold induction at 0.3 µM: 0.3 μM Cbl-b inhibitor; for fold induction at 1 µM: 1 μM Cbl-b inhibitor; for fold induction at 4 µM: 4 μM Cbl-b inhibitor
Procedure, shortened: (§1)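 T-cells were stimulated with anti-CD3 antibody alone or with anti-CD28 antibody, in the presence or absence of Cbl-b inhibitor. IL-2 secretion or CD25 surface staining was measured, and values expressed as fold over the uninhibited baseline […].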

T-cell [2] = assay: IL-2 secretion from T-cells stimulated with anti-CD3 antibody alone (Biological Example 2); format: cell-based, human; settings: T-cell, fold change over baseline, primary human total T-cells, read-out: IL-2 secretion Anti-CD3 stimulation; for fold induction at 1 µM: 1 μM Cbl-b inhibitor; for fold induction at 8 µM: 8 μM Cbl-b inhibitor
T-cell [3] = assay: CD25 cell surface staining on T-cells co-stimulated with anti-CD3 and anti-CD28 antibody (Biological Example 2); format: cell-based, human; settings: Homo sapiens, T-cell, fold change over baseline, primary human total T-cells, read-out: CD25 staining Anti-CD3/Anti-CD28 stimulation; for fold induction at 0.3 µM: 0.3 μM Cbl-b inhibitor; for fold induction at 1 µM: 1 μM Cbl-b inhibitor; for fold induction at 4 µM: 4 μM Cbl-b inhibitor
Procedure, shortened: as §1

Cbl-b (residues 36-427) = Cbl-b (residues 36-427) (Homo sapiens, UniProt Q13191); assay: Cbl-b binding assay (SPR, Biacore T200); settings: 20° C., 1:1 binding model
Procedure, shortened: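 Steps: capture protein on NeutrAvidin surface; inject compound dilutions (8 or 10 points from 100 or 50 μM) 50 s; allow 90-180 s dissociation; regenerate 20 s with 0.3 M NaCl. Runs at 20° C in HEPES pH 7.5/100 mM NaCl/2% DMSO; 1:1 fitting.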

Chain of Cbl-b (residues 36-427) (Q13191 36-427): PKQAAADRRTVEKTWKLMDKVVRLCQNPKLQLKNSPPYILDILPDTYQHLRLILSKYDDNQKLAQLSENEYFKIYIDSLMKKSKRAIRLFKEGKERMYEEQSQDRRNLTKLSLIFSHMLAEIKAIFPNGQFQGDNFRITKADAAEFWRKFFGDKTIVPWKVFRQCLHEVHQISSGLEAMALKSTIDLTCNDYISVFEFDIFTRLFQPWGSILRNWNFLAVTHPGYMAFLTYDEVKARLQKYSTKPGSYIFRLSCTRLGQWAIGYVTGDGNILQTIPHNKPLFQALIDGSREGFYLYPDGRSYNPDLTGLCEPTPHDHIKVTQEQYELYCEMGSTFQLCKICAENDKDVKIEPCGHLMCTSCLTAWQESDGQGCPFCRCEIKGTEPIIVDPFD

Row | SMILES | fold induction at 0.3 µM (T-cell [1]) | fold induction at 1 µM (T-cell [1]) | fold induction at 4 µM (T-cell [1]) | fold induction at 1 µM (T-cell [2]) | fold induction at 8 µM (T-cell [2]) | fold induction at 0.3 µM (T-cell [3]) | fold induction at 1 µM (T-cell [3]) | fold induction at 4 µM (T-cell [3]) | Kd (Cbl-b (residues 36-427))
1 | Cc1cc(C(=O)Nc2cc([C@H](C)Sc3nncn3C)ccn2)nc(C(F)(F)F)c1 [Compound 103, (S)-4-methyl-N-(4-(1-((4-methyl-4H-1,2,4-triazol-3-yl)thio)ethyl)pyridin-2-yl)-6-(trifluoromethyl)picolinamide] | 1.01 to 2.5 | 1.01 to 2.5 | 1.01 to 2.5 | < 0.05 | 0.051 to 0.1 | < 1 | < 1 | 1.01 to 1.3 | 1000 to 3000 nM
2 | C[C@H](Sc1nncn1C)c1ccnc(NC(=O)c2cc(C3CC3)cc(C(F)(F)F)n2)c1 [Compound 104, (S)-4-cyclopropyl-N-(4-(1-((4-methyl-4H-1,2,4-triazol-3-yl)thio)ethyl)pyridin-2-yl)-6-(trifluoromethyl)picolinamide] | 1.01 to 2.5 | 1.01 to 2.5 | 1.01 to 2.5 | < 0.05 | < 0.05 | < 1 | < 1 | 1.01 to 1.3 | 1000 to 3000 nM
3 | C[C@H](Sc1nncn1C)c1ccnc(NC(=O)c2cc(Cl)cc(C(F)(F)F)n2)c1 [Compound 105, (S)-4-chloro-N-(4-(1-((4-methyl-4H-1,2,4-triazol-3-yl)thio)ethyl)pyridin-2-yl)-6-(trifluoromethyl)picolinamide] | 1.01 to 2.5 | 1.01 to 2.5 | < 1 | < 0.05 | < 0.05 | 1.01 to 1.3 | 1.01 to 1.3 | < 1 | 1000 to 3000 nM
4 | Cc1ccc(C(=O)Nc2cc([C@H](C)Sc3nncn3C)ccn2)nc1C1CC1 [Compound 113, (S)-6-cyclopropyl-5-methyl-N-(4-(1-((4-methyl-4H-1,2,4-triazol-3-yl)thio)ethyl)pyridin-2-yl)picolinamide] | 2.51 to 5 | 2.51 to 5 | 5 to 7.5 | < 0.05 | < 0.05 | < 1 | < 1 | 1.01 to 1.3 | 1000 to 3000 nM
5 | C[C@H](Sc1nncn1C)c1ccnc(NC(=O)c2cc3c(C(F)(F)F)cccc3[nH]2)c1 [Compound 120, N-[4-[(1S)-1-[(4-methyl-1,2,4-triazol-3-yl)sulfanyl]ethyl]-2-pyridyl]-4-(trifluoromethyl)-1H-indole-2-carboxamide] | 1.01 to 2.5 | 1.01 to 2.5 | 1.01 to 2.5 | < 0.05 | < 0.05 | < 1 | < 1 | < 1 | 301 to 1000 nM
6 | Cc1nc2cc([C@H](C)Sc3nncn3C)cc(NC(=O)c3cccc(C(F)(F)F)n3)c2o1 [Compound 130a, (S)-N-(2-methyl-5-(1-((4-methyl-4H-1,2,4-triazol-3-yl)thio)ethyl)benzo[d]oxazol-7-yl)-6-(trifluoromethyl)picolinamide] | 2.51 to 5 | 5 to 7.5 | > 7.5 | < 0.05 | > 0.201 | 1.31 to 1.5 | 1.51 to 1.75 | > 1.76 | 301 to 1000 nM
7 | C[C@H](Sc1nncn1C)c1cccc(NC(=O)c2cc(C(=O)N3CC[C@H](O)C3)ccn2)c1 [Compound 140, 4-[[(3S)-3-hydroxypyrrolidin-1-yl]carbonyl]-N-[3-[(1S)-1-[(4-methyl-4H-1,2,4-triazol-3-yl)sulfanyl]ethyl]phenyl]pyridine-2-carboxamide] | < 1 | < 1 | < 1 | < 0.05 | < 0.05 | 1.01 to 1.3 | 1.01 to 1.3 | 1.01 to 1.3 | 301 to 1000 nM
8 | C[C@H](Sc1nncn1C)c1cccc(NC(=O)c2cc(C(=O)N3CC(O)C3)ccn2)c1 [Compound 148, (S)-4-(3-hydroxyazetidine-1-carbonyl)-N-(3-(1-((4-methyl-4H-1,2,4-triazol-3-yl)thio)ethyl)phenyl)picolinamide] | < 1 | < 1 | < 1 | < 0.05 | < 0.05 | < 1 | < 1 | < 1 | 1000 to 3000 nM
9 | C[C@H](Sc1nncn1C)c1cccc(NC(=O)c2cc(C(=O)N3C[C@H](O)C[C@@H]3C)ccn2)c1 [Compound 151, 4-((2S,4R)-4-hydroxy-2-methylpyrrolidine-1-carbonyl)-N-(3-((S)-1-((4-methyl-4H-1,2,4-triazol-3-yl)thio)ethyl)phenyl)picolinamide] | > 7.5 | > 7.5 | > 7.5 | < 0.05 | < 0.05 | 1.01 to 1.3 | 1.01 to 1.3 | 1.01 to 1.3 | 1000 to 3000 nM
10 | C[C@H](Sc1nncn1C)c1cccc(N2Cc3c(cccc3C(F)(F)F)C2=O)c1 [Compound 166a, (S)-2-(3-(1-((4-methyl-4H-1,2,4-triazol-3-yl)thio)ethyl)phenyl)-4-(trifluoromethyl)isoindolin-1-one] | < 1 | < 1 | 1.01 to 2.5 | < 0.05 | < 0.05 | < 1 | 1.01 to 1.3 | 1.01 to 1.3 | 301 to 1000 nM
11 | C[C@H](Sc1nncn1C)c1cccc(N2Cc3c(ccnc3Cl)C2=O)c1 [Compound 167, 4-chloro-2-[3-[(1S)-1-[(4-methyl-1,2,4-triazol-3-yl)sulfanyl]ethyl]phenyl]-3H-pyrrolo[3,4-c]pyridin-1-one] | 1.01 to 2.5 | < 1 | 2.51 to 5 | < 0.05 | 0.101 to 0.15 | 1.51 to 1.75 | 1.01 to 1.3 | > 1.76 | 301 to 1000 nM
12 | CC(Sc1nncn1C)c1cc(F)cc(N2Cc3c(cccc3C(F)(F)F)C2=O)c1 [Compound 168, 2-[3-fluoro-5-[(1R)-1-[(4-methyl-1,2,4-triazol-3-yl)sulfanyl]ethyl]phenyl]-4-(trifluoromethyl)isoindolin-1-one] | 1.01 to 2.5 | 1.01 to 2.5 | 1.01 to 2.5 | < 0.05 | 0.051 to 0.1 | < 1 | < 1 | 1.01 to 1.3 | 1000 to 3000 nM
13 | C[C@H](Sc1nncn1C)c1cc(F)cc(N2Cc3c(cccc3C(F)(F)F)C2=O)c1 [Compound 168a, 2-[3-fluoro-5-[(1S)-1-[(4-methyl-1,2,4-triazol-3-yl)sulfanyl]ethyl]phenyl]-4-(trifluoromethyl)isoindolin-1-one] | < 1 | 1.01 to 2.5 | < 1 | < 0.05 | < 0.05 | 1.01 to 1.3 | 1.01 to 1.3 | 1.01 to 1.3 | 301 to 1000 nM
14 | C[C@H](Sc1nncn1C)c1ccnc(N2Cc3c(cccc3C(F)(F)F)C2=O)c1 [Compound 172a, (S)-(4-(1-((4-methyl-4H-1,2,4-triazol-3-yl)thio)ethyl)pyridin-2-yl)-4-(trifluoromethyl)isoindolin-1-one] | 2.51 to 5 | 2.51 to 5 | 2.51 to 5 | < 0.05 | < 0.05 | < 1 | < 1 | < 1 | 1000 to 3000 nM
15 | C[C@H](Cc1nncn1C)c1cccc(NC(=O)c2cccc(S(C)(=O)=O)n2)c1 [Compound 185, (R)-N-(3-(1-(4-methyl-4H-1,2,4-triazol-3-yl)propan-2-yl)phenyl)-6-(methylsulfonyl)picolinamide] | 1.01 to 2.5 | 1.01 to 2.5 | 2.51 to 5 | 0.051 to 0.1 | 0.051 to 0.1 | 1.01 to 1.3 | > 1.76 | > 1.76 | 1000 to 3000 nM
